Consider twelve molecules from ChEMBL document CHEMBL1765079, “Syntheses of 2-deoxy-2,3-didehydro-N-acetylneuraminic acid analogues modified by N-sulfonylamidino groups at the C-4 position and biological evaluation as inhibitors of human parainfluenza virus type 1” (Bioorg Med Chem, 2011).

SMILES strings stand for the structures.

The experiment addresses T1, Hemagglutinin-neuraminidase (Human parainfluenza virus 1, UniProt Q06992).
T1 sequence (Q06992 whole entry): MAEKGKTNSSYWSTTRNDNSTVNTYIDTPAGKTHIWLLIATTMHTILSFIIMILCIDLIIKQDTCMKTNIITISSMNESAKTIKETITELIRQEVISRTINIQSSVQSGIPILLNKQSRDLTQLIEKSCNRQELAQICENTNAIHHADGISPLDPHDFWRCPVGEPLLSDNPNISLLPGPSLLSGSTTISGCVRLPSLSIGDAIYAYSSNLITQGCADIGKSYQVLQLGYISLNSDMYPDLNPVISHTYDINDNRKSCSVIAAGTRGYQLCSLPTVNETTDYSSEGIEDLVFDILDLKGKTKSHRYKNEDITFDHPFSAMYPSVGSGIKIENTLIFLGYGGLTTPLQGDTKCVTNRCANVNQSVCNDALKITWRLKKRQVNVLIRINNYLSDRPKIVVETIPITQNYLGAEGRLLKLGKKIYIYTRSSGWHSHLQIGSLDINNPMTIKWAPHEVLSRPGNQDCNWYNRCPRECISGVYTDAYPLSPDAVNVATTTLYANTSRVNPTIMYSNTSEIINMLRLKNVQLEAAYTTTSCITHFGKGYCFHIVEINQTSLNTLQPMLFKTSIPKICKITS
Nature of the experiment: Inhibition of Human parainfluenza virus 1 sialidase using N-acetyl-alpha-neuramic acid by fluorometric assay. Further details: species or system Human respirovirus 1.
Regarding `CC(=O)N[C@H]1[C@H]([C@H](O)[C@H](O)CO)OC(C(=O)O)=C[C@@H]1OCCC(=NC(C)C)NS(=O)(=O)c1ccc(C)cc1`, half-maximal inhibition (IC50) required 7700 µM.

Regarding `CC(=O)N[C@H]1[C@H]([C@H](O)[C@H](O)CO)OC(C(=O)O)=C[C@@H]1OCCC(=Nc1ccccc1)NS(C)(=O)=O`, the half-inhibitory concentration (IC50) (usually the concentration that gives 50% inhibition) was 800 µM.

With `CC(=O)N[C@H]1[C@H]([C@H](O)[C@H](O)CO)OC(C(=O)O)=C[C@@H]1N=C(C)NS(C)(=O)=O`, the concentration for half-maximal inhibition (IC50) came to 16000 µM.

`CC(=O)NC1[C@H](C(O)[C@H](O)CO)OC(C(=O)O)=C[C@@H]1O` (single isomer, unassigned) [NEU5AC2EN] displayed an IC50 of 300 µM.

For the molecule `CC(=O)N[C@H]1[C@H]([C@H](O)[C@H](O)CO)OC(C(=O)O)=C[C@@H]1N=C(Cc1ccc(F)cc1)NS(C)(=O)=O`, the IC50 turned out to be 1600 µM.

In turn, `CC(=O)N[C@H]1[C@H]([C@H](O)[C@H](O)CO)OC(C(=O)O)=C[C@@H]1N=C(Cc1cccs1)NS(C)(=O)=O` returned a concentration for half-maximal inhibition (IC50) of 2000 µM.

Molecule `CC(=O)N[C@H]1[C@H]([C@H](O)[C@H](O)CO)OC(C(=O)O)=C[C@@H]1OCC/C(=N\S(=O)(=O)c1ccc(C)cc1)N(C(C)C)C(C)C` registered an IC50 of 4800 µM.

In turn, `CC(=O)N[C@H]1[C@H]([C@H](O)[C@H](O)CO)OC(C(=O)O)=C[C@@H]1N=C(Cc1ccccc1)NS(C)(=O)=O` came in with an IC50 of 2100 µM.

`CC(=O)N[C@H]1[C@H]([C@H](O)[C@H](O)CO)OC(C(=O)O)=C[C@@H]1N=C(CC1=CCCCC1)NS(C)(=O)=O` returned a half-maximal inhibitory concentration (IC50) of 1500 µM.

Molecule `CCCc1ccc(C/C(=N/S(C)(=O)=O)N[C@H]2C=C(C(=O)O)O[C@@H]([C@H](O)[C@H](O)CO)[C@@H]2NC(C)=O)cc1` registered an IC50 of 1600 µM.

`CCN(CC)/C(CCO[C@H]1C=C(C(=O)O)O[C@@H]([C@H](O)[C@H](O)CO)[C@@H]1NC(C)=O)=N\S(=O)(=O)c1ccc(C)cc1` registered an IC50 of 9100 µM.

The molecule `CCN(CC)/C(CCO[C@H]1C=C(C(=O)O)O[C@@H]([C@H](O)[C@H](O)CO)[C@@H]1NC(C)=O)=N/S(C)(=O)=O` gave a 50% inhibitory concentration (IC50) of 1500 µM.
